Data taken from patent US7009036B2, “Peptide inhibiting platelet derived growth factor (PDGF-BB) and fibroblast growth factor (bFGF) activity” (Provincia Italiana Della Congregazione Dei Figli …, priority 2001, dated 2006).
Ends that are not written are not given here.

Key:
[1] = test system: primary rat aorta smooth muscle cells (RASMC); test: Proliferation assay, RASMC; assay type: cell-based; details: 0.1% BSA alone, no growth factor; any time
Description: (§1) This test was carried out on Primary rat aorta smooth muscle cells (RASMC) obtained from six-month old male Wistar rats following a well known technique (Sterpetti, A. V. et al., 1992, J. Vasc. Surg., 6, 16–20); primary bovine aortic endothelial cells (BAEC) were obtained according to previously described protocols (D'Arcangelo, D. et al., 2000, Circ.Res., 86, 312–318).
(§2) Proliferation assay was carried out on primary rat aorta SMC and on primary bovine aortic endothelial cells (BAEC). Cells were plated in six-well plates (1×10^5 cells/plate) and grown for 24 hours in Dulbecco Modified eagle's medium (DMEM) supplemented with 10% FBS, at 37° C. in 5% CO2. Then, the medium was replaced with DMEM medium containing 0.1% BSA for 24 hours. Subsequently, the medium was replaced with fresh medium containing either 0.1% BSA alone or 0.1% BSA with growth factors at 10 ng/ml final concentration or fetal calf serum (FCS) al 10%, in the absence or in the presence of PEP1 or control peptide. Each assay was carried out for mounting period of time up to a maximum time of three days and the cell were harvested and counted with hemacytometer.

[2] = test system: primary bovine aortic endothelial cells (BAEC); test: Proliferation assay, BAEC; assay type: cell-based; details: 0.1% BSA alone, no growth factor; any time
Description: as §1, §2

DPHIKLQLQAE [PEP1, Asp-Pro-His-Ile-Lys-Leu-Gln-Leu-Gln-Ala-Glu]
effect on spontaneous proliferation (toxicity per se), RASMC [1]: not significantly affected
effect on spontaneous proliferation (toxicity per se), BAEC [2]: not significantly affected
